Consider six molecules from patent publication US20140127158A1, “COMBINATION THERAPY FOR HEPATITIS C VIRUS INFECTION” (National Health Research Institute, priority 2012, published 2014).

Where two headings read alike, the source gives them in different places.

As a reminder, the CC50 is the concentration that lowers cell viability or growth by half.

The test system of series [1] is HCV genotype 1b replicon (Con1). The following applies: HCV1b replicon; Gao et al., Nature 2010; cited from earlier work.
Series [2] relates to HCV genotype 2a replicon (JFH1). The note with it: Gao et al., Nature 2010; cited from earlier work.
Series [3] in a line: Cytotoxicity assay (MTT). The note with it: human. It counts as cell-based. The method, then:
(§1) (4) Cytotoxicity assay. The sensitivity of the cell lines to inhibitors was examined using a 3-(4,5-Dimethylthiazol-2-yl)-2,5-diphenyltetrazolium bromide (MTT) assay. Briefly, Huh-7.5 cells were plated at a density of 1×10^5 cells per well in 12-well plates containing 1 mL of culture medium for 4 h. Serial dilutions of the compounds or DMSO (negative control) were added, and the plates were incubated for an additional 72 h. The MTT reagent was then added to each well, and the plates were incubated for 3 h at 37° C. in a humidified 5% CO2 atmosphere before reading at a wavelength of 563 nm using an ELISA plate reader. All data are presented as the means +/−SD from four independent experiments.

The subject of series [4] is HCV genotype 1b replicon. Put plainly: Inhibitor combination study (combination index, CalcuSyn). The following applies: at the concentrations used in the combination experiments.
The subject of series [5] is HCV genotype 1b replicon (Con1). Put plainly: Inhibitory assay for HCV replicons (luciferase), genotype 1b Con1. The following applies: HCV-1b replicon cell lines, single agent. It counts as cell-based, Hepatitis C virus. As for the experimental part: (2) Cell culture and HCV inhibitors. Huh-7.5 cells and their derivative HCV replicon cell lines were maintained in Dulbecco's modified Eagle's medium (DMEM, Gibco/BRL) that was supplemented with 100 U/mL penicillin-streptomycin (Gibco/BRL), 0.1 mM nonessential amino acid (NEAA, Gibco/BRL) and 10% fetal bovine serum (FBS) heat inactivated at 37° C. in 5% CO2. The HCV replicon cell lines were isolated from colonies as described in Lohman et al., Science 285:110-3 (1999). The culture medium for the replicon cells was additionally supplemented with 0.25 to 0.5 mg/mL of G418, unless specified otherwise. Compound DBPR110 and sofosbuvir were synthesized at the Institute of Biotechnology and Pharmaceutical Research at the National Health Research Institutes in Taiwan. Telaprevir (Lin et al., Antimicrob Agents Chemother, 50:1813-22 (2006)) was purchased from Acme Biosciences (Belmont, Calif.). The compounds were stored at −20° C. as 10 to 500 mM dimethyl sulfoxide (DMSO) stock solutions until the assay. IFN-α was purchased from Calbiochem (La Jolla, Calif.) and stored at −80° C.
(3) Inhibitory assay for HCV replicons. Cells were seeded at 1×10^4 (high-throughput screening assay) or 1×10^5 (regular assay) cells/well in 96- or 12-well plate, respectively, and incubated for 4 h. The medium was then aspirated and replaced with 0.1 (96-well plate) or 1 (12-well plate) mL of complete medium containing a single compound or combinations of compounds in serial concentration(s). The plates with compounds were incubated for 72 h and then assayed for luciferase expression (Promega). The EC50 of each compound was determined independently and used to determine the range of concentrations used for the combination experiments. All data are presented as the means±standard deviations (SD) from three independent experiments. The selectivity index (SI) was calculated as the ratio of the CC50 to the EC50.
(A replicon is a self-replicating genome or part of one, used to study replication in cells.)

For series [6], the system named is Huh-7.5 cells. Put plainly: Cytotoxicity assay (MTT). Type of series: cell-based. The following applies: HCV-1b replicon cell lines; single agent. As for the experimental part:
as §1

The mark [7] stands for this setting: HCV-1b replicon cell lines, single agent, read-out: CC50.
The mark [8] stands for this setting: Hepatitis C virus, read-out: EC50.
Where [9] appears, read: Hepatitis C virus, read-out: EC90.

Consider `COC(=O)N[C@H](C(=O)N1CCC[C@H]1c1nc(-c2ccc(-c3ccc(-c4c[nH]c([C@@H]5CCCN5C(=O)[C@@H](NC(=O)OC)C(C)C)n4)cc3)cc2)c[nH]1)C(C)C` [BMS-790052], for which the values for the EC50 in series [1] and in series [2] were 0.009 nM and 0.071 nM, respectively.
Take `CC(C)(C)NC(=O)N[C@H](C(=O)N1C[C@H]2[C@@H]([C@H]1C(=O)NC(CC1CCC1)C(=O)C(N)=O)C2(C)C)C(C)(C)C` (stereo partly drawn) [Boceprevir, boceprevir, reference compound]: the CC50 at 72 h in series [3] (setting [7]) is above 5000 nM. In addition, in series [4], the cytotoxicity result was “No cytotoxicity was observed”. Besides, the EC50 in series [5] (setting [8]) is 361 ± 19.9 nM. Further, the EC90 in series [5] (setting [9]) stood at 962 ± 21.5 nM.
`NC(=O)c1ncn([C@@H]2O[C@H](CO)[C@@H](O)[C@H]2O)n1` [Ribavirin, ribavirin, reference compound] came in with a CC50 at 72 h in series [3] above 200000 nM. Also, the EC50 in series [5] (setting [8]) worked out at 20500 ± 3500 nM. Moreover, the EC90 in series [5] (setting [9]) was found to be 95000 ± 20100 nM.
With `CC(C)OC(=O)[C@H](C)N[P@](=O)(OC[C@H]1O[C@@H](n2ccc(=O)[nH]c2=O)[C@](C)(F)[C@@H]1O)Oc1ccccc1` [Sofosbuvir, sofosbuvir, reference compound], the CC50 at 72 h in series [3] (setting [7]) was above 5000 nM. Further, in series [4], the cytotoxicity result is “No cytotoxicity was observed”. Further, the EC50 in series [5] (setting [8]) worked out at 91.5 ± 18.3 nM. Further, the EC90 in series [5] (setting [9]) was found to be 323 ± 66.1 nM.
Turning to `CCC[C@H](NC(=O)[C@@H]1[C@H]2CCC[C@H]2CN1C(=O)[C@@H](NC(=O)[C@@H](NC(=O)c1cnccn1)C1CCCCC1)C(C)(C)C)C(=O)C(=O)NC1CC1` [Telaprevir, telaprevir, reference compound], in series [3] (setting [7]), the CC50 at 72 h was above 5000 nM. The cytotoxicity entry in series [4] is reported as “No cytotoxicity was observed”. In addition, in series [5] (setting [8]), the EC50 amounted to 301.6 ± 2.8 nM. Further, the EC90 in series [5] (setting [9]) was 912 ± 75.4 nM.
As to IFN-α, the CC50 in series [6] was >2,000 IU/mL. In series [4], the cytotoxicity result was “No cytotoxicity was observed”. In addition, in series [5], the EC50 is given as 35.1±4.7 IU/mL and the EC90 is 327.0 ± 0.01 IU/mL.
